From patent publication US11168093B2, “Thienopyridine inhibitors of RIPK2” (Celgene Corporation, priority 2018, dated 2021)

Target: RIPK2 enzyme (Homo sapiens (Human), UniProt O43353)
Test: RIPK2 inhibition assay, TR-FRET LanthaScreen Tracer 199 screening assay
Type: binding
Conditions: 5 nM RIPK2 enzyme, Tracer 199 at 50 nM, Eu-anti-His Antibody at 2 nM, 1 hour incubation
Method: All data was collected using a standard TR-FRET screening assay: LanthaScreen Tracer 199 at 50 nM, Eu-anti-His Antibody at 2 nM, 5 nM RIPK2 enzyme, and 1× Kinase Reaction Buffer. There was a 1 hour incubation prior to read. TR-FRET signal of the interaction (340Ex/665Em/615Em) was read at room temperature with standard setting. Background was subtracted of wells containing no enzyme. Percent inhibition was based on uninhibited controls log (inhibitor) vs. response. Variable slope equation was used with no constraints: Log Y=Bottom+(Top−Bottom)/(1+10^((Log IC50−X)*Hill Slope)).
The compound numbers correspond to the compound numbers above.

Sequence of RIPK2 enzyme (O43353 whole entry): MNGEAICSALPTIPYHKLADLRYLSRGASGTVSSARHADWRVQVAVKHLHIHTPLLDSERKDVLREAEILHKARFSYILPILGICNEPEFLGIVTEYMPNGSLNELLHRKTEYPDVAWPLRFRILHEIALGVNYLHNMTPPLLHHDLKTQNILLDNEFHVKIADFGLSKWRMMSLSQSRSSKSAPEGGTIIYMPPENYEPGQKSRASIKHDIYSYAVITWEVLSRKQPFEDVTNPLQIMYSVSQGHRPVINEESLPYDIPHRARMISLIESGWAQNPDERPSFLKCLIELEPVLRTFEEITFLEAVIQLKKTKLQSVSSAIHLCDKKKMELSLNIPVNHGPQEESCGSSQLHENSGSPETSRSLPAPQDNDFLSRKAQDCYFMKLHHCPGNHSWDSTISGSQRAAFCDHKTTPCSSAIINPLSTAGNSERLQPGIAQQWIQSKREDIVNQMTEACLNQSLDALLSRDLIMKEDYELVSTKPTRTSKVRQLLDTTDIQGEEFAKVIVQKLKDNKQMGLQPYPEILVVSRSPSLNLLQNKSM

Row | Structure (SMILES) | IC50 [µM]
1 | COCCN1CCC=C(c2cc3c(Nc4ccc5scnc5c4)ccnc3s2)C1C (centres unmarked) [Example 12, N-(2-(1-(2-methoxyethyl)-2-methyl-1,2,5,6-tetrahydropyridin-3-yl)thieno[2,3-b]pyridin-4-yl)benzo[d]thiazol-5-amine] | ≤ 0.01
2 | COCCN1CCC=C(c2cc3c(Nc4ccc5scnc5c4)ccnc3s2)[C@H]1C [Example 12a, N-(2-(1-(2-methoxyethyl)-2-methyl-1,2,5,6-tetrahydropyridin-3-yl)thieno[2,3-b]pyridin-4-yl)benzo[d]thiazol-5-amine] | ≤ 0.01
3 | COCCN1CCC=C(c2cc3c(Nc4ccc5scnc5c4)ccnc3s2)[C@@H]1C [Example 12b, N-(2-(1-(2-methoxyethyl)-2-methyl-1,2,5,6-tetrahydropyridin-3-yl)thieno[2,3-b]pyridin-4-yl)benzo[d]thiazol-5-amine] | ≤ 0.01
4 | CC1C(c2cc3c(Nc4ccc5scnc5c4)ccnc3s2)CCCN1CCF (centres unmarked) [Example 14, N-(2-(1-(2-fluoroethyl)-2-methylpiperidin-3-yl)thieno[2,3-b]pyridin-4-yl)benzo[d]thiazol-5-amine] | ≤ 0.01
5 | CC1C(c2cc3c(Nc4ccc5scnc5c4)ccnc3s2)CCCN1CC(F)F (centres unmarked) [Example 15, N-(2-(1-(2,2-difluoroethyl)-2-methylpiperidin-3-yl)thieno[2,3-b]pyridin-4-yl)benzo[d]thiazol-5-amine] | 0.02 to 0.05
6 | CC1NCC=C1c1cc2c(Nc3ccc4scnc4c3)ccnc2s1 (centres unmarked) [Example 25, N-(2-(2-methyl-2,5-dihydro-1H-pyrrol-3-yl)thieno[2,3-b]pyridin-4-yl)benzo[d]thiazol-5-amine] | ≤ 0.01
7 | CC1C(c2cc3c(Nc4ccc5scnc5c4)ccnc3s2)=CCN1C (centres unmarked) [Example 27, N-(2-(1,2-dimethyl-2,5-dihydro-1H-pyrrol-3-yl)thieno[2,3-b]pyridin-4-yl)benzo[d]thiazol-5-amine] | ≤ 0.01
8 | CC1(C)NCC=C1c1cc2c(Nc3ccc4scnc4c3)ccnc2s1 [Example 32, N-(2-(2,2-dimethyl-2,5-dihydro-1H-pyrrol-3-yl)thieno[2,3-b]pyridin-4-yl)benzo[d]thiazol-5-amine] | ≤ 0.01
9 | CC1(C)NCCC1c1cc2c(Nc3ccc4scnc4c3)ccnc2s1 (centres unmarked) [Example 33, N-(2-(2,2-dimethylpyrrolidin-3-yl)thieno[2,3-b]pyridin-4-yl)benzo[d]thiazol-5-amine] | ≤ 0.01
10 | CN1CC=C(c2cc3c(Nc4ccc5scnc5c4)ccnc3s2)C1(C)C [Example 34, N-(2-(1,2,2-trimethyl-2,5-dihydro-1H-pyrrol-3-yl)thieno[2,3-b]pyridin-4-yl)benzo[d]thiazol-5-amine] | ≤ 0.01
11 | CN1CCC(c2cc3c(Nc4ccc5scnc5c4)ccnc3s2)C1(C)C (centres unmarked) [Example 35, N-(2-(1,2,2-trimethylpyrrolidin-3-yl)thieno[2,3-b]pyridin-4-yl)benzo[d]thiazol-5-amine] | 0.01 to 0.02
12 | CCN1CCC(c2cc3c(Nc4ccc5scnc5c4)ccnc3s2)C1(C)C (centres unmarked) [Example 37, N-(2-(1-ethyl-2,2-dimethylpyrrolidin-3-yl)thieno[2,3-b]pyridin-4-yl)benzo[d]thiazol-5-amine] | ≤ 0.01
13 | CC1(C)C(c2cc3c(Nc4ccc5scnc5c4)ccnc3s2)CCN1CCO (centres unmarked) [Example 38, 2-(3-(4-(benzo[d]thiazol-5-ylamino)thieno[2,3-b]pyridin-2-yl)-2,2-dimethylpyrrolidin-1-yl)ethan-1-ol] | ≤ 0.01
14 | C1=C(c2cc3c(Nc4ccc5scnc5c4)ccnc3s2)C2(COC2)NC1 [Example 39, N-(2-(2-oxa-5-azaspiro[3.4]oct-7-en-8-yl)thieno[2,3-b]pyridin-4-yl)benzo[d]thiazol-5-amine] | ≤ 0.01
15 | C1=C(c2cc3c(Nc4ccc5scnc5c4)ccnc3s2)C2(CCOC2)NC1 (centres unmarked) [Example 40, N-(2-(7-oxa-1-azaspiro[4.4]non-3-en-4-yl)thieno[2,3-b]pyridin-4-yl)benzo[d]thiazol-5-amine] | ≤ 0.01
16 | CN1CC=C(c2cc3c(Nc4ccc5scnc5c4)ccnc3s2)C12CCOC2 (centres unmarked) [Example 41, N-(2-(1-methyl-7-oxa-1-azaspiro[4.4]non-3-en-4-yl)thieno[2,3-b]pyridin-4-yl)benzo[d]thiazol-5-amine] | 0.01 to 0.02
17 | c1cc(Nc2ccc3scnc3c2)c2cc(C3CCNC34CCOC4)sc2n1 (centres unmarked) [Example 42, N-(2-(7-oxa-1-azaspiro[4.4]nonan-4-yl)thieno[2,3-b]pyridin-4-yl)benzo[d]thiazol-5-amine] | 0.01 to 0.02
18 | CN1CCC(c2cc3c(Nc4ccc5scnc5c4)ccnc3s2)C12CCOC2 (centres unmarked) [Example 43, N-(2-(1-methyl-7-oxa-1-azaspiro[4.4]nonan-4-yl)thieno[2,3-b]pyridin-4-yl)benzo[d]thiazol-5-amine] | 0.02 to 0.05
19 | CCN1CC=C(c2cc3c(Nc4ccc5scnc5c4)ccnc3s2)C12CCOC2 (centres unmarked) [Example 44, N-(2-(1-ethyl-7-oxa-1-azaspiro[4.4]non-3-en-4-yl)thieno[2,3-b]pyridin-4-yl)benzo[d]thiazol-5-amine] | ≤ 0.01
20 | CCN1CCC(c2cc3c(Nc4ccc5scnc5c4)ccnc3s2)C12CCOC2 (centres unmarked) [Example 45, N-(2-(1-ethyl-7-oxa-1-azaspiro[4.4]nonan-4-yl)thieno[2,3-b]pyridin-4-yl)benzo[d]thiazol-5-amine] | 0.01 to 0.02
21 | C1=C(c2cc3c(Nc4ccc5scnc5c4)ccnc3s2)C2(CCOCC2)NC1 [Example 46, N-(2-(8-oxa-1-azaspiro[4.5]dec-3-en-4-yl)thieno[2,3-b]pyridin-4-yl)benzo[d]thiazol-5-amine] | ≤ 0.01
22 | CCN1CC=C(c2cc3c(Nc4ccc5scnc5c4)ccnc3s2)C12CCOCC2 [Example 47, N-(2-(1-ethyl-8-oxa-1-azaspiro[4.5]dec-3-en-4-yl)thieno[2,3-b]pyridin-4-yl)benzo[d]thiazol-5-amine] | ≤ 0.01
23 | CCN1CCC(c2cc3c(Nc4ccc5scnc5c4)ccnc3s2)C12CCOCC2 (centres unmarked) [Example 48, N-(2-(1-ethyl-8-oxa-1-azaspiro[4.5]decan-4-yl)thieno[2,3-b]pyridin-4-yl)benzo[d]thiazol-5-amine] | ≥ 0.05
24 | C[C@H]1NCCC=C1c1cc2c(Nc3cc4ncsc4cc3F)ccnc2s1 [Example 49a, 6-fluoro-N-(2-(2-methyl-1,2,5,6-tetrahydropyridin-3-yl)thieno[2,3-b]pyridin-4-yl)benzo[d]thiazol-5-amine] | 0.01 to 0.02
25 | C[C@@H]1NCCC=C1c1cc2c(Nc3cc4ncsc4cc3F)ccnc2s1 [Example 49b, 6-fluoro-N-(2-(2-methyl-1,2,5,6-tetrahydropyridin-3-yl)thieno[2,3-b]pyridin-4-yl)benzo[d]thiazol-5-amine] | ≤ 0.01
26 | C[C@H]1NCCC[C@H]1c1cc2c(Nc3cc4ncsc4cc3F)ccnc2s1 [Example 50b, 6-fluoro-N-(2-((2R)-2-methylpiperidin-3-yl)thieno[2,3-b]pyridin-4-yl)benzo[d]thiazol-5-amine] | ≤ 0.01

Results, then the compound that gave them:

Row | IC50 [µM] | Structure (SMILES)
27 | ≤ 0.01 | COCCN1CCCC(c2cc3c(Nc4ccc5scnc5c4)ccnc3s2)C1C (centres unmarked) [Example 13, N-(2-(1-(2-methoxyethyl)-2-methylpiperidin-3-yl)thieno[2,3-b]pyridin-4-yl)benzo[d]thiazol-5-amine]
28 | 0.01 to 0.02 | CC1C(c2cc3c(Nc4ccc5scnc5c4)ccnc3s2)CCCN1C1COC1 (centres unmarked) [Example 17, N-(2-(2-methyl-1-(oxetan-3-yl)piperidin-3-yl)thieno[2,3-b]pyridin-4-yl)benzo[d]thiazol-5-amine]
29 | ≤ 0.01 | CC1C(c2cc3c(Nc4ccc5scnc5c4)ccnc3s2)CCCN1CCCN (centres unmarked) [Example 18, N-(2-(1-(3-aminopropyl)-2-methylpiperidin-3-yl)thieno[2,3-b]pyridin-4-yl)benzo[d]thiazol-5-amine]
30 | 0.01 to 0.02 | CCOCCN1CCCC(c2cc3c(Nc4ccc5scnc5c4)ccnc3s2)C1C (centres unmarked) [Example 19, N-(2-(1-(2-ethoxyethyl)-2-methylpiperidin-3-yl)thieno[2,3-b]pyridin-4-yl)benzo[d]thiazol-5-amine]
31 | ≤ 0.01 | CC1C(c2cc3c(Nc4ccc5scnc5c4)ccnc3s2)CCCN1CCO (centres unmarked) [Example 20, 2-(3-(4-(benzo[d]thiazol-5-ylamino)thieno[2,3-b]pyridin-2-yl)-2-methylpiperidin-1-yl)ethan-1-ol]
32 | 0.02 to 0.05 | c1cc(Nc2ccc3scnc3c2)c2cc(C3CCCN4CCCCC34)sc2n1 (centres unmarked) [Example 21, N-(2-(octahydro-2H-quinolizin-1-yl)thieno[2,3-b]pyridin-4-yl)benzo[d]thiazol-5-amine]
33 | ≤ 0.01 | CCC1C(c2cc3c(Nc4ccc5scnc5c4)ccnc3s2)CCCN1C (centres unmarked) [Example 23a, N-(2-(2-ethyl-1-methylpiperidin-3-yl)thieno[2,3-b]pyridin-4-yl)benzo[d]thiazol-5-amine]
34 | 0.01 to 0.02 | CCC1C(c2cc3c(Nc4ccc5scnc5c4)ccnc3s2)CCCN1CC (centres unmarked) [Example 24, N-(2-(1,2-diethylpiperidin-3-yl)thieno[2,3-b]pyridin-4-yl)benzo[d]thiazol-5-amine]
35 | ≤ 0.01 | CC1NCCC1c1cc2c(Nc3ccc4scnc4c3)ccnc2s1 (centres unmarked) [Example 26, N-(2-(2-methylpyrrolidin-3-yl)thieno[2,3-b]pyridin-4-yl)benzo[d]thiazol-5-amine]
36 | ≤ 0.01 | CC1C(c2cc3c(Nc4ccc5scnc5c4)ccnc3s2)CCN1C (centres unmarked) [Example 28, N-(2-(1,2-dimethylpyrrolidin-3-yl)thieno[2,3-b]pyridin-4-yl)benzo[d]thiazol-5-amine]
37 | ≤ 0.01 | CCN1CCC(c2cc3c(Nc4ccc5scnc5c4)ccnc3s2)C1C (centres unmarked) [Example 30, N-(2-(1-ethyl-2-methylpyrrolidin-3-yl)thieno[2,3-b]pyridin-4-yl)benzo[d]thiazol-5-amine]
38 | ≤ 0.01 | CC1C(c2cc3c(Nc4ccc5scnc5c4)ccnc3s2)CCN1CCO (centres unmarked) [Example 31, 2-(3-(4-(benzo[d]thiazol-5-ylamino)thieno[2,3-b]pyridin-2-yl)-2-methylpyrrolidin-1-yl)ethan-1-ol]
